In patent US6743429B2 (Sherbrooke University, priority 1999, dated 2004):
Where no end group is shown, it is not given here.

Assays:
[1] = tested on: allergic sheep; test: Metacholine-induced non-specific airway responsiveness in allergic sheep; assay type: in vivo; details: inhaled 0.5 mg in 2 ml PBS
Text: (§1) Eighteen sheep with a mean weight of 35 kg (range: 24 to 52 kg) were used for this study. […] Ten of these animals were defined as non-allergic and 8 as allergic, based on the absence or presence of both early and late airway responses after a standard inhalation challenge with Ascaris suum antigen. All sheep were allowed a 4-week recovery period after the allergen challenge before experimentation began. For each of the procedures hereafter presented, the unsedated animals were restrained on a standard shopping cart in the prone position and their heads were immobilized. […]
(§2) The techniques used for investigating airway mechanics were again well-validated and standardized procedures (as is usually the case with large mammals). […] Lateral pressure in the trachea was measured with a sidehole catheter (inner diameter=2.5 mm) advanced through and positioned distal to the tip of the endotracheal tube. […] The transpulmonary pressure and flow signals were recorded on a Hewlett Packard (model 7754B, Mass. USA) multichannel recorder, which was linked to a PC 386 Personal Computer (IBM Equipment, Montreal, Quebec) for online calculation of mean RL by dividing the change in transpulmonary pressure by the change in flow at mid-tidal volume (Vt) (obtained by digital integration). […]

[2] = tested on: allergic sheep; test: Ascaris suum antigen-induced early and late increases in pulmonary resistance in sheep; assay type: in vivo
Text: as §1, §2

[3] = tested on: sheep; test: Haemodynamic parameters and baseline SRL after inhaled administration in sheep; assay type: in vivo; details: inhaled increasing doses (CGRP 0.1, 0.25, 0.5 and 1.0 mg/2 ml)
Text: as §1
Briefly, pleural pressure was estimated via the esophageal balloon catheter (filled with 1 ml of air), which was positioned 5 to 10 cm from the gastroesophageal junction. […] Lateral pressure in the trachea was measured with a sidehole catheter (inner diameter=2.5 mm) advanced through and positioned distal to the tip of the endotracheal tube. […] The transpulmonary pressure and flow signals were recorded on a Hewlett Packard (model 7754B, Mass. USA) multichannel recorder, which was linked to a PC 386 Personal Computer (IBM Equipment, Montreal, Quebec) for online calculation of mean RL by dividing the change in transpulmonary pressure by the change in flow at mid-tidal volume (Vt) (obtained by digital integration). […]

[4] = tested on: allergic guinea pigs; test: Allergen (ovalbumin)-induced bronchospasm (PIP) in allergic guinea pigs; assay type: in vivo, guinea pig; details: CGRP receptor antagonist given 5 minutes before the allergen challenge
Protocol: Guinea pigs were anaesthetized with xylazine (20 mg/kg, i.m.) and ketamine hydrochloride (130 mg/kg, i.m.). The jugular vein and trachea were cannulated and animals were mechanically ventilated with a constant-volume rodent respirator (Havard, model 683) delivering a tidal volume of 5.5 ml/kg at a frequency of 60 cycles/min via the tracheal cannula. Airway resistance was measured by the overflow technique according to well-validated and standardized procedures. Briefly, ventilation overflow (i.e., the pulmonary insufflation pressure or PIP), was recorded at the side arm of the tracheal cannula by means of a differential pressure transducer (Gould P23 ID) connected to a Grass polygraph (model 7D). Airway responsiveness was assessed by measuring the changes in PIP following i.v. injections of the agonists. Changes in PIP, which were taken as an index of changed airway resistance, were measured and expressed in mm of mercury (mm Hg). Each agonist was injected through the jugular vein cannula in a volume of 100 μl followed by a washout with 200 μl of heparinized-saline (100 units/ml).
The resulting increase in PIP (bronchoconstriction) was compared to responses obtained in control animals i.e. in allergic guinea pigs, which received only saline solution 5 minutes before the i.v. injection of ovalbumin. […]

| Molecule | protection against metacholine-induced increase in airway resistance [1] [%] | effect on late phase bronchoconstriction to Ascaris suum antigen ([2]; aerosol 0.5 mg in 2 ml PBS pretreatment) | reduction of the peak of the early phase response to Ascaris suum antigen ([2]; aerosol 0.5 mg in 2 ml PBS, 20 minutes before antigen challenge) [%] | heart rate [3] | mean arterial blood pressure (MAP) [3] | magnitude of the allergen-induced bronchospasm versus untreated animals [4] |
| --- | --- | --- | --- | --- | --- | --- |
| CC(C)(C)NCC(O)c1ccc(O)c(CO)c1 (stereo not drawn) [salbutamol] | 65 | does not affect | 45 | increase in heart rate | hypotension |  |
| hCGRP(8-37) (VTHRLAGLLSRSGGVVKNNFVPTNVGSKAF; ends and bridges not checked; UniProt P06881 90-119, looked up, fragment) [a CGRP receptor antagonist] |  |  |  |  |  | significant increase |
